Tests used:
[1] = test system: 68 proteins (ion channels, transporters, nuclear receptors, G protein-coupled receptors); test: Eurofins LeadProfilingScreen panel assay; type: binding; settings: 10 μmol/L; significant defined as >50% inhibition for each target protein
Method: The binding affinity of TAS1553 to the R1 subunit was investigated using surface plasmon resonance (SPR) binding analysis. […] Next, we evaluated the inhibitory effect of TAS1553 against the enzymatic activity of RNR, consisting of R1 and R2 recombinant proteins. RNR activity was determined by its ability to reduce cytidine diphosphate (CDP) to deoxycytidine diphosphate (dCDP), based on a previous report. […] In addition to the inhibitory effect on RNR, TAS1553 was evaluated in a Eurofins LeadProfilingScreen panel assay including 68 proteins, such as ion channels, transporters, nuclear receptors, and G protein-coupled receptors, to examine its potential adverse activity.

MV-4-11 cells = test: Cell proliferation assay (CellTiter-Glo), MV-4-11; type: cell-based; settings: Homo sapiens, MV4-11, 72 h; MV-4-11, 3 days exposure
Method: Next, we evaluated both concentration-dependent and time-dependent effects of TAS1553 on the dATP pool in HCC38 and MV-4-11 cell lines using absolute quantification. After 2 h of TAS1553 exposure, there was a concentration-dependent reduction of intracellular dATP pool in both cell lines (Fig. 2c). Furthermore, the intracellular dATP pool was reduced within 30 minutes when treated with TAS1553 at 1 or 10 µmol/L in both cell lines (Fig. 2d), consistent with its inhibitory effect on the protein-protein interaction (Fig. 2a).
Cell proliferation assay was performed as reported previously. Briefly, cells were plated and incubated for 1 day, followed by 3 days of exposure to the compound. After compound exposure, viable cells were detected by using the CellTiter-Glo luminescent cell viability assay (Promega). GI50 values were calculated using the SAS software package. The experiment was performed in triplicates.

MLL-AF9 AML cells = test: Survival in systemic AML model (mice bone marrow cells harboring human MLL-AF9 fusion gene); type: in vivo, mouse; settings: 100 mg/kg daily
Method: Next, we evaluated the antitumor activity of a high-dose administration of TAS1553 and cytarabine in rats bearing MV-4-11 xenografts. […] The rats were treated with cytarabine for 5 days at 16 and 32 mg/kg. […] In addition to the hematologic tumor, we evaluated the antitumor activity of TAS1553 in mice implanted with HCC38 cell line as a solid tumor model. […] Finally, TAS1553 was evaluated for its survival benefit in a mouse model. To achieve this, we established mice bone marrow cells harboring the human MLL-AF9 fusion gene, which is known as a driver gene for AML in humans as well as mice[48]. Mice were transplanted with the cells through the tail vein and the treatment with TAS1553 was started 11 days post-implantation.

MV-4-11 xenograft tumors = test: Intratumoral dATP and ATP pool in MV-4-11 xenograft tumors after single oral dose; type: in vivo, rat; settings: 1 and 2 h post-administration, 50 mg/kg and 200 mg/kg single oral dose
Method: To determine whether TAS1553 achieved RNR inhibition in an in vivo model, we examined the effect of a single dose of orally administered TAS1553 on intratumoral dATP pool, DNA replication stress, and apoptosis in rats that were subcutaneously implanted with a xenograft of MV-4-11 cell line. […] The decline in the intratumoral dATP pool recovered 4 h after the administration of both doses. We also evaluated the DNA replication stress and apoptosis induction in tumors following TAS1553 administration. Consistent with the modulation of the dATP pool, the single administration of TAS1553 (50 mg/kg or more) caused the phosphorylation of Chk1 at Ser345 1 and 2 h post-administration. Furthermore, TAS1553 administration also led to induction in cleaved PARP and cleaved caspase-3 levels, following to Chk1 phosphorylation (Fig. 4d).
Cells were plated, cultured for 1 day, treated with the compound, and harvested. The collected cells were homogenized with 0.42 mol/L perchloric acid, including IS-dATP at 0.6 μmol/L and IS-ATP at 2.4 μmol/L as internal standards for dATP and ATP, respectively. At each time point, xenograft tumors were excised after single dosing of the test compound. The tissues were homogenized with 0.42 mol/L perchloric acid, including IS-dATP at 3 μmol/L as an internal standard for dATP and ATP. […] The aqueous layer collected after vortex and centrifugation was analyzed by LC-MS/MS. […]

For `Cc1ccc(F)c([C@@H](C)[C@H](NS(=O)(=O)c2ccc(Cl)cc2C(N)=O)c2n[nH]c(=O)o2)c1C` [TAS1553, 5-chloro-2-{N-[(1S,2R)-2-(6-fluoro-2,3-dimethylphenyl)-1-(5-oxo-4,5-dihydro-1,3,4-oxadiazol-2-yl)propyl]sulfamoyl}benzamide], the “inhibition in 68-protein panel” value [1] was “no significant inhibition”, the GI50 (MV-4-11 cells) was 393 nM and the median survival time (MLL-AF9 AML cells; start 11 days post-implantation) was 75.5 days. For the same molecule, the “increase in the life span” value (MLL-AF9 AML cells; versus control) was 34.8% and the “effect on intratumoral dATP pool” value (MV-4-11 xenograft tumors) was “significant reduction”.

Source: article PMC9184620, “TAS1553, a small molecule subunit interaction inhibitor of ribonucleotide reductase, exhibits antitumor activity by causing DNA replication stress” (Communications Biology, 2022)
